Patent US10517889B2, “Modulators of SMAD7 expression” (Ionis Pharmaceuticals, Inc., priority 2017, dated 2019)
Strand notation (5' to 3'): a small letter for the sugar, then the base; units joined by * are phosphorothioate-linked, units joined directly phosphodiester-linked; [ ] holds rarer units or linkages, { } end groups; capitals alone tell only the bases. k = constrained ethyl (cEt); [5mC] = 5-methylcytosine; d = 2'-deoxy (DNA)

Tested on: human SMAD7 mRNA
Experiment: Antisense inhibition of human SMAD7 mRNA expression in Hep3B cells by 3-10-3 cEt gapmers, 10,000 nM, electroporation (Example 2)
Assay type: cell-based
Conditions: approximately 24 hours
Summary of the method: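 Hep3B, 20,000 cells/well; electroporation, 10,000 nM ASO; ~24 h. Readout: SMAD7 mRNA by qRT-PCR (RTS5062), RIBOGREEN-normalised; % inhibition vs untreated.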

[1] = Hep3B cells, electroporation with 10,000 nM antisense oligonucleotide, SMAD7 mRNA by RT-PCR (RTS5062), relative to untreated control cells
[2] = Hep3B cells, 10,000 nM antisense oligonucleotide, electroporation, RT-PCR primer probe set RTS5062, relative to untreated control cells
[3] = SMAD7 mRNA, Hep3B cells, 10,000 nM antisense oligonucleotide, electroporation, primer probe set RTS5062, relative to untreated control cells

Substance | % Inhibition [1] | % Inhibition [2] | also measured
800061 (antisense k[5mC]*k[5mC]*k[5mC]*dA*dA*dA*dT*dG*d[5mC]*d[5mC]*dT*dG*d[5mC]*k[5mC]*k[5mC]*k[5mC]) [compound 800061] | 44% |  | 
800062 (antisense k[5mC]*k[5mC]*k[5mC]*d[5mC]*dA*dA*dG*d[5mC]*dT*dG*dG*d[5mC]*d[5mC]*kT*kT*k[5mC]) [compound 800062] | 25% |  | 
800063 (antisense kG*k[5mC]*k[5mC]*dA*dT*dA*d[5mC]*dA*dA*dA*dT*dG*dT*kG*k[5mC]*kA) [compound 800063] | 0% |  | 
800064 (antisense kA*kT*kG*dG*dA*dG*dG*dT*dG*d[5mC]*d[5mC]*d[5mC]*dG*kT*k[5mC]*kA) [compound 800064] | 0% |  | 
800065 (antisense kT*kT*kA*dA*dG*dT*dA*dG*d[5mC]*dA*dG*d[5mC]*d[5mC]*kA*kG*kT) [compound 800065] | 55% |  | 
800067 (antisense kA*kG*kG*dA*d[5mC]*d[5mC]*dT*dG*dG*dG*dA*dA*d[5mC]*k[5mC]*k[5mC]*kA) [compound 800067] | 51% |  | 
800068 (antisense kA*k[5mC]*kA*d[5mC]*dT*dA*dA*d[5mC]*dT*dG*dG*d[5mC]*dT*k[5mC]*k[5mC]*kA) [compound 800068] | 34% |  | 
800069 (antisense k[5mC]*kA*kT*dG*dG*d[5mC]*dG*dG*dA*dA*dG*dA*dT*kG*kG*kG) [compound 800069] |  | 25% | 
800070 (antisense k[5mC]*k[5mC]*kA*dT*dG*dG*d[5mC]*dG*dG*dA*dA*dG*dA*kT*kG*kG) [compound 800070] |  | 9% | 
800071 (antisense kT*kG*kT*dA*dT*dT*dT*dG*dT*dT*dA*dA*d[5mC]*kA*kA*kA) [compound 800071] |  | 2% | 
800072 (antisense kG*kA*k[5mC]*dT*dT*dG*dG*dG*dA*d[5mC]*d[5mC]*dA*dT*kA*kA*kA) [compound 800072] |  | 0% | 
800073 (antisense kT*kA*kA*dG*dT*dA*dG*dG*dA*dG*d[5mC]*d[5mC]*dA*kG*k[5mC]*kG) [compound 800073] |  | 39% | 
800074 (antisense kG*kG*kG*d[5mC]*dA*dT*dT*d[5mC]*dT*dG*dA*d[5mC]*dT*k[5mC]*k[5mC]*kT) [compound 800074] |  | 33% | 
800075 (antisense kT*kA*kA*dT*dT*dT*dT*d[5mC]*d[5mC]*dT*d[5mC]*dA*dA*k[5mC]*kA*kG) [compound 800075] |  | 55% | 
800076 (antisense k[5mC]*kG*k[5mC]*dT*dT*d[5mC]*d[5mC]*d[5mC]*dT*dA*d[5mC]*dA*d[5mC]*kA*kG*kT) [compound 800076] |  | 25% | 
800077 (antisense k[5mC]*k[5mC]*kT*dT*dA*dA*d[5mC]*dA*dA*dA*dG*d[5mC]*dT*kT*k[5mC]*k[5mC]) [compound 800077] |  | 36% | 
800078 (antisense kA*k[5mC]*k[5mC]*dT*dT*dA*dA*d[5mC]*dA*dA*dA*dG*d[5mC]*kT*kT*k[5mC]) [compound 800078] |  | 51% | 
800079 (antisense kT*kA*k[5mC]*d[5mC]*dT*dT*dA*dA*d[5mC]*dA*dA*dA*dG*k[5mC]*kT*kT) [compound 800079] | 61% |  | 
800080 (antisense kG*kG*kG*d[5mC]*dT*dA*d[5mC]*d[5mC]*dT*dT*dA*dA*d[5mC]*kA*kA*kA) [compound 800080] | 14% |  | 
800081 (antisense k[5mC]*kG*kG*dT*dA*dT*dT*dA*dA*d[5mC]*d[5mC]*d[5mC]*dG*kG*kG*k[5mC]) [compound 800081] | 0% |  | 
800082 (antisense kG*k[5mC]*kA*dG*dA*d[5mC]*d[5mC]*dG*dG*dT*dA*dT*dT*kA*kA*k[5mC]) [compound 800082] | 12% |  | 
800083 (antisense kT*kG*k[5mC]*dA*dG*dA*d[5mC]*d[5mC]*dG*dG*dT*dA*dT*kT*kA*kA) [compound 800083] | 11% |  | 
800084 (antisense kG*k[5mC]*k[5mC]*dA*dA*dA*dT*d[5mC]*dA*d[5mC]*dA*dA*d[5mC]*kA*kT*kG) [compound 800084] | 57% |  | 
800085 (antisense kA*kG*k[5mC]*dA*dG*d[5mC]*d[5mC]*d[5mC]*dT*dG*dT*dA*d[5mC]*kA*k[5mC]*kA) [compound 800085] | 37% |  | 
800086 (antisense kA*kG*k[5mC]*dA*dG*d[5mC]*dA*dG*d[5mC]*d[5mC]*d[5mC]*dT*dG*kT*kA*k[5mC]) [compound 800086] | 40% |  | 
800087 (antisense kT*kA*kA*dT*dA*dG*dG*dA*dA*dA*dA*d[5mC]*dA*kG*kT*k[5mC]) [compound 800087] | 0% |  | 
800088 (antisense kA*kA*kT*dG*dA*dG*dG*dG*dT*dG*dG*d[5mC]*dT*kT*kG*kG) [compound 800088] | 54% |  | 

Substance | % Inhibition [1] | % Inhibition [2] | also measured
800089 (antisense kA*kG*kG*dA*dA*d[5mC]*d[5mC]*dT*dA*dT*d[5mC]*dT*dG*kG*kT*kA) [compound 800089] |  | 0% | 
800090 (antisense k[5mC]*kA*k[5mC]*d[5mC]*dT*dA*dT*dG*d[5mC]*dG*dA*dT*dG*kG*kT*k[5mC]) [compound 800090] |  | 0% | 
800091 (antisense kT*kG*kA*d[5mC]*dA*d[5mC]*dA*dG*d[5mC]*d[5mC]*dA*dG*dA*kG*k[5mC]*kT) [compound 800091] |  | 0% | 
800092 (antisense kA*kT*k[5mC]*d[5mC]*dT*dG*dA*dT*dG*dA*dG*dA*dA*kA*kA*k[5mC]) [compound 800092] |  | 0% | 
800093 (antisense kT*kT*kG*dA*dA*dG*dG*d[5mC]*d[5mC]*dA*dG*d[5mC]*dT*k[5mC]*k[5mC]*kT) [compound 800093] |  | 48% | 
800094 (antisense kA*kT*kG*dG*dA*dA*d[5mC]*d[5mC]*dT*dT*dG*dA*dA*kG*kG*k[5mC]) [compound 800094] |  | 49% | 
800095 (antisense kA*kG*kT*dT*dA*d[5mC]*dA*dG*dA*dT*d[5mC]*dT*dT*kT*k[5mC]*kA) [compound 800095] |  | 47% | 
800096 (antisense kT*kG*kG*dA*dG*dT*dT*dA*d[5mC]*dA*dG*dA*dT*k[5mC]*kT*kT) [compound 800096] |  | 32% | 
800097 (antisense kG*k[5mC]*k[5mC]*dT*d[5mC]*dA*dA*dA*dA*dA*dG*d[5mC]*d[5mC]*kT*k[5mC]*kA) [compound 800097] |  | 1% | 
800098 (antisense kT*kT*kT*dT*dA*dG*dG*dG*d[5mC]*d[5mC]*dT*d[5mC]*dA*kA*kA*kA) [compound 800098] |  | 1% | 
800099 (antisense kT*kG*k[5mC]*dA*dA*dA*dG*dG*dG*dA*d[5mC]*d[5mC]*d[5mC]*kT*kT*kA) [compound 800099] | 6% |  | 
800100 (antisense kT*kG*k[5mC]*dA*dG*dA*dG*d[5mC]*dA*d[5mC]*dA*dG*dA*kT*kG*k[5mC]) [compound 800100] | 16% |  | 
800101 (antisense kA*kA*k[5mC]*dA*dA*dA*dG*d[5mC]*d[5mC]*dT*d[5mC]*dT*dT*k[5mC]*kT*k[5mC]) [compound 800101] | 0% |  | 
800102 (antisense kA*k[5mC]*kG*dA*dG*dA*d[5mC]*dA*dG*dA*dA*dA*dG*kA*kA*kG) [compound 800102] | 21% |  | 
800103 (antisense kG*kG*kA*d[5mC]*dG*dA*dG*dA*d[5mC]*dA*dG*dA*dA*kA*kG*kA) [compound 800103] | 4% |  | 
800104 (antisense kA*kG*kG*dA*d[5mC]*dG*dA*dG*dA*d[5mC]*dA*dG*dA*kA*kA*kG) [compound 800104] | 17% |  | 
800105 (antisense kT*k[5mC]*k[5mC]*dT*dA*dG*dA*dA*dT*dG*dA*dA*dG*kA*k[5mC]*kA) [compound 800105] | 17% |  | 
800106 (antisense k[5mC]*kA*kG*dA*dG*dA*dG*dG*dG*dT*dT*dA*dG*kT*kG*kG) [compound 800106] | 12% |  | 
800107 (antisense kA*kA*kT*d[5mC]*dT*dA*dG*dA*dA*dA*dA*d[5mC]*dA*k[5mC]*kA*kT) [compound 800107] | 0% |  | 
800108 (antisense kG*kG*kA*dA*dT*d[5mC]*dT*dA*dG*dA*dA*dA*dA*k[5mC]*kA*k[5mC]) [compound 800108] | 12% |  | 
800768 (antisense kG*k[5mC]*kG*d[5mC]*dT*d[5mC]*d[5mC]*dG*dT*dG*dG*d[5mC]*dA*kT*kG*k[5mC]) [compound 800768] |  |  | % Inhibition [3]: 18%
800769 (antisense kG*k[5mC]*kA*dG*dG*d[5mC]*dG*dA*d[5mC]*dA*dG*d[5mC]*dA*kG*k[5mC]*kA) [compound 800769] |  |  | % Inhibition [3]: 49%
800771 (antisense k[5mC]*k[5mC]*k[5mC]*dG*d[5mC]*dA*dG*d[5mC]*dT*d[5mC]*dG*d[5mC]*d[5mC]*kT*k[5mC]*k[5mC]) [compound 800771] |  |  | % Inhibition [3]: 46%
800776 (antisense kG*kA*kG*dG*d[5mC]*dA*d[5mC]*dG*d[5mC]*dG*dG*dT*dG*k[5mC]*kG*k[5mC]) [compound 800776] |  |  | % Inhibition [3]: 36%
800786 (antisense kG*k[5mC]*kA*d[5mC]*d[5mC]*dA*dG*dT*dG*dT*dG*dA*d[5mC]*k[5mC]*kG*kA) [compound 800786] |  |  | % Inhibition [3]: 0%
800787 (antisense k[5mC]*kA*kG*dT*dA*dG*dA*dG*d[5mC]*d[5mC]*dT*d[5mC]*d[5mC]*k[5mC]*k[5mC]*kA) [compound 800787] |  |  | % Inhibition [3]: 38%
